# Residues, ends and D or L forms follow the SMILES beside them.
# What was measured:
# [1] = Inhibition of FXIIa (unknown origin) using Ac-QRFR-pNA as substrate measured at 30 sec interval by microplate reader assay; parameters: species or system Homo sapiens
# Homo sapiens = species on record: Homo sapiens; experiment: Potency index, ratio of M8 Ki to test compound Ki for inhibition of FXIIa (unknown origin)
# [2] = Inhibition of human cationic trypsin using Boc-VPR-MCA as susbtrate
# Plasminogen = Plasminogen (Homo sapiens, UniProt P00747); experiment: Inhibition of human plasmin using Ac-RM(O2)YR-pNA as substrate
# [3] = Inhibition of human FXa using Z-Pyr-GR-MCA as substrate
# Sequence of Plasminogen (P00747 97-580 limits assumed): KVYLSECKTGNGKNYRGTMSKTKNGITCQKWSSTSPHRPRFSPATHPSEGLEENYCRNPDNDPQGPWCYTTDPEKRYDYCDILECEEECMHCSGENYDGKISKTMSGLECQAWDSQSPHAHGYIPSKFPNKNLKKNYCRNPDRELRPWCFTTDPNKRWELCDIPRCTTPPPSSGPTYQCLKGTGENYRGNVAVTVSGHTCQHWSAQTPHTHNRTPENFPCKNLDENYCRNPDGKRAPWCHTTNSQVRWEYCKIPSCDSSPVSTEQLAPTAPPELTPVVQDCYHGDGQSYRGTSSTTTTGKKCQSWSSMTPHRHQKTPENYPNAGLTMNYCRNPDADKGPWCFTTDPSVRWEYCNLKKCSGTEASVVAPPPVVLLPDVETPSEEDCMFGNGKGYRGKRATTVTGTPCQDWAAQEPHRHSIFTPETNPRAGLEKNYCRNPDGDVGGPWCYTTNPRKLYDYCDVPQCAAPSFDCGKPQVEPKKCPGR
# Sequence of Plasminogen (P00747 581-810 limits assumed): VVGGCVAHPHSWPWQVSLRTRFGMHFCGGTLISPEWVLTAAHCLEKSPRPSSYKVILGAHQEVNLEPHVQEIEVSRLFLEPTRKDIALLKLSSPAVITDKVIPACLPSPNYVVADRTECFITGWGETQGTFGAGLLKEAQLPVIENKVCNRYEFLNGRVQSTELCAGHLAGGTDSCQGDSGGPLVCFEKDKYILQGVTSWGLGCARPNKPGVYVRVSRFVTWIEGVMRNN
Structure (SMILES),Ki [1] [nM],Ratio Ki (Homo sapiens),Ki [2] [nM],Ki (Plasminogen) [nM],IC50 [3] [nM]
"CC[C@H](C)[C@@H]1NC(=O)[C@@H]2CSSC[C@@H]3NC(=O)[C@H](CCC(N)=O)NC(=O)CNC(=O)CNC(=O)[C@H](CC(=O)O)NC(=O)[C@H](CO)NC(=O)CNC(=O)[C@@H]4CSSC[C@H](NC(=O)[C@H](CC(=O)O)NC(=O)[C@H](CO)NC(=O)[C@H](CC(=O)O)NC(=O)[C@H](CCCNC(=N)N)NC(=O)[C@H](CCCNC(=N)N)NC(=O)[C@H](CSSC[C@H](NC1=O)C(=O)N[C@@H](CCCNC(=N)N)C(=O)NCC(=O)N[C@@H](CC(N)=O)C(=O)NCC(=O)N[C@@H](Cc1ccc(O)cc1)C(=O)N4)NC(=O)[C@H](CCCCN)NC(=O)[C@H](CCCCN)NC(=O)[C@H](CC(C)C)NC(=O)[C@H]([C@@H](C)CC)NC(=O)[C@H](CCCNC(=N)N)NC(=O)[C@H](Cc1ccccc1)NC3=O)C(=O)N1CCC[C@H]1C(=O)NCC(=O)N[C@@H](C)C(=O)N2 (HELM PEPTIDE1{A.C.I.C.R.G.N.G.Y.C.G.S.D.G.G.Q.C.F.R.I.L.K.K.C.R.R.D.S.D.C.P.G}$PEPTIDE1,PEPTIDE1,2:R3-17:R3|PEPTIDE1,PEPTIDE1,4:R3-24:R3|PEPTIDE1,PEPTIDE1,10:R3-30:R3|PEPTIDE1,PEPTIDE1,1:R1-32:R2$$$V2.0)",92,2.1,–,–,–
"CC[C@H](C)[C@@H]1NC(=O)[C@@H]2CSSC[C@@H]3NC(=O)[C@H](CCC(N)=O)NC(=O)CNC(=O)CNC(=O)[C@H](CO)NC(=O)CNC(=O)[C@H](CO)NC(=O)CNC(=O)[C@@H]4CSSC[C@H](NC(=O)[C@H](CC(=O)O)NC(=O)[C@H](CO)NC(=O)[C@H](CC(=O)O)NC(=O)[C@H](CCCNC(=N)N)NC(=O)[C@H](CCCNC(=N)N)NC(=O)[C@H](CSSC[C@H](NC1=O)C(=O)N[C@@H](CCCNC(=N)N)C(=O)NCC(=O)N[C@@H](CC(N)=O)C(=O)NCC(=O)N[C@@H](Cc1ccc(O)cc1)C(=O)N4)NC(=O)[C@H](CCCCN)NC(=O)[C@H](CCCCN)NC(=O)[C@H](CC(C)C)NC(=O)[C@H]([C@@H](C)CC)NC(=O)[C@H](CCCNC(=N)N)NC(=O)[C@H](Cc1ccccc1)NC3=O)C(=O)N1CCC[C@H]1C(=O)NCC(=O)N[C@@H](C)C(=O)N2 (HELM PEPTIDE1{A.C.I.C.R.G.N.G.Y.C.G.S.G.S.G.G.Q.C.F.R.I.L.K.K.C.R.R.D.S.D.C.P.G}$PEPTIDE1,PEPTIDE1,2:R3-18:R3|PEPTIDE1,PEPTIDE1,4:R3-25:R3|PEPTIDE1,PEPTIDE1,10:R3-31:R3|PEPTIDE1,PEPTIDE1,1:R1-33:R2$$$V2.0)",140,1.4,–,–,–
CC[C@H](C)[C@@H]1NC(=O)[C@H](CCCNC(=N)N)NC(=O)[C@H](Cc2ccccc2)NC(=O)[C@@H]2CSSC[C@H]3NC(=O)[C@H](C)NC(=O)CNC(=O)[C@@H]4CCCN4C(=O)[C@@H]4CSSC[C@H](NC(=O)[C@H](Cc5ccc(O)cc5)NC(=O)CNC(=O)[C@H](CC(N)=O)NC(=O)CNC(=O)[C@H](CCCNC(=N)N)NC(=O)[C@H](CSSC[C@H](NC(=O)[C@H](CCCCN)NC(=O)[C@H](CCCCN)NC(=O)[C@H](CC(C)C)NC1=O)C(=O)N[C@@H](CCCNC(=N)N)C(=O)N[C@@H](CCCNC(=N)N)C(=O)N[C@@H](CC(=O)O)C(=O)N[C@@H](CO)C(=O)N[C@@H](CC(=O)O)C(=O)N4)NC(=O)[C@H]([C@@H](C)CC)NC3=O)C(=O)NCC(=O)N[C@@H](CO)C(=O)NCC(=O)N[C@@H](CCC(N)=O)C(=O)N2,156,1.2,–,–,–
CC[C@H](C)[C@@H]1NC(=O)[C@@H]2CSSC[C@H](NC(=O)[C@H](CCC(N)=O)NC(=O)CNC(=O)CN)C(=O)N[C@@H](Cc3ccccc3)C(=O)N[C@@H](CCCNC(=N)N)C(=O)N[C@@H]([C@@H](C)CC)C(=O)N[C@@H](CC(C)C)C(=O)N[C@@H](CCCCN)C(=O)N[C@@H](CCCCN)C(=O)N[C@@H]3CSSC[C@H](NC1=O)C(=O)N[C@@H](CCCNC(=N)N)C(=O)NCC(=O)N[C@@H](CC(N)=O)C(=O)NCC(=O)N[C@@H](Cc1ccc(O)cc1)C(=O)N[C@H](C(=O)NCC(=O)N[C@@H](C)C(=O)O)CSSC[C@H](NC(=O)[C@H](CC(=O)O)NC(=O)[C@H](CO)NC(=O)[C@H](CC(=O)O)NC(=O)[C@H](CCCNC(=N)N)NC(=O)[C@H](CCCNC(=N)N)NC3=O)C(=O)N1CCC[C@H]1C(=O)NCC(=O)N[C@@H](C)C(=O)N2,157,–,–,–,–

# Further compounds by falling Ki [1], results first:
Ki [1] [nM],Ratio Ki (Homo sapiens),Ki [2] [nM],Ki (Plasminogen) [nM],IC50 [3] [nM],Structure (SMILES)
131,1.5,–,–,–,"CC[C@H](C)[C@@H]1NC(=O)[C@@H]2CSSC[C@@H]3NC(=O)[C@H](CCC(N)=O)NC(=O)CNC(=O)CNC(=O)[C@H](CO)NC(=O)[C@H](CO)NC(=O)CNC(=O)[C@@H]4CSSC[C@H](NC(=O)[C@H](CC(=O)O)NC(=O)[C@H](CO)NC(=O)[C@H](CC(=O)O)NC(=O)[C@H](CCCNC(=N)N)NC(=O)[C@H](CCCNC(=N)N)NC(=O)[C@H](CSSC[C@H](NC1=O)C(=O)N[C@@H](CCCNC(=N)N)C(=O)NCC(=O)N[C@@H](CC(N)=O)C(=O)NCC(=O)N[C@@H](Cc1ccc(O)cc1)C(=O)N4)NC(=O)[C@H](CCCCN)NC(=O)[C@H](CCCCN)NC(=O)[C@H](CC(C)C)NC(=O)[C@H]([C@@H](C)CC)NC(=O)[C@H](CCCNC(=N)N)NC(=O)[C@H](Cc1ccccc1)NC3=O)C(=O)N1CCC[C@H]1C(=O)NCC(=O)N[C@@H](C)C(=O)N2 (HELM PEPTIDE1{A.C.I.C.R.G.N.G.Y.C.G.S.S.G.G.Q.C.F.R.I.L.K.K.C.R.R.D.S.D.C.P.G}$PEPTIDE1,PEPTIDE1,2:R3-17:R3|PEPTIDE1,PEPTIDE1,4:R3-24:R3|PEPTIDE1,PEPTIDE1,10:R3-30:R3|PEPTIDE1,PEPTIDE1,1:R1-32:R2$$$V2.0)"
106,-4.2,–,–,–,"CC[C@H](C)[C@@H]1NC(=O)[C@@H]2CSSC[C@H](NC(=O)[C@H](CCC(N)=O)NC(=O)CNC(=O)CN)C(=O)N[C@@H](Cc3ccccc3)C(=O)N[C@@H](CCCNC(=N)N)C(=O)N[C@@H]([C@@H](C)CC)C(=O)N[C@@H](CC(C)C)C(=O)N[C@@H](CCCCN)C(=O)N[C@@H](CCCCN)C(=O)N[C@H]3CSSC[C@H](NC1=O)C(=O)N[C@@H](CCCNC(=N)N)C(=O)NCC(=O)N[C@@H](CC(N)=O)C(=O)NCC(=O)N[C@@H](Cc1ccc(O)cc1)C(=O)N[C@H](C(=O)N[C@@H](C)C(=O)N[C@@H](CO)C(=O)O)CSSC[C@H](NC(=O)[C@H](CC(=O)O)NC(=O)[C@H](CO)NC(=O)[C@H](CC(=O)O)NC(=O)[C@H](CCCNC(=N)N)NC(=O)[C@H](CCCNC(=N)N)NC3=O)C(=O)N1CCC[C@H]1C(=O)NCC(=O)N[C@@H](C)C(=O)N2 (HELM PEPTIDE1{G.G.Q.C.F.R.I.L.K.K.C.R.R.D.S.D.C.P.G.A.C.I.C.R.G.N.G.Y.C.A.S}$PEPTIDE1,PEPTIDE1,4:R3-21:R3|PEPTIDE1,PEPTIDE1,11:R3-23:R3|PEPTIDE1,PEPTIDE1,17:R3-29:R3$$$V2.0)"
76,2.6,–,–,–,"CC[C@H](C)[C@@H]1NC(=O)[C@@H]2CSSC[C@@H]3NC(=O)[C@H](CCC(N)=O)NC(=O)CNC(=O)CNC(=O)CNC(=O)[C@H](CO)NC(=O)CNC(=O)[C@@H]4CSSC[C@H](NC(=O)[C@H](CC(=O)O)NC(=O)[C@H](CO)NC(=O)[C@H](CC(=O)O)NC(=O)[C@H](CCCNC(=N)N)NC(=O)[C@H](CCCNC(=N)N)NC(=O)[C@H](CSSC[C@H](NC1=O)C(=O)N[C@@H](CCCNC(=N)N)C(=O)NCC(=O)N[C@@H](CC(N)=O)C(=O)NCC(=O)N[C@@H](Cc1ccc(O)cc1)C(=O)N4)NC(=O)[C@H](CCCCN)NC(=O)[C@H](CCCCN)NC(=O)[C@H](CC(C)C)NC(=O)[C@H]([C@@H](C)CC)NC(=O)[C@H](CCCNC(=N)N)NC(=O)[C@H](Cc1ccccc1)NC3=O)C(=O)N1CCC[C@H]1C(=O)NCC(=O)N[C@@H](C)C(=O)N2 (HELM PEPTIDE1{A.C.I.C.R.G.N.G.Y.C.G.S.G.G.G.Q.C.F.R.I.L.K.K.C.R.R.D.S.D.C.P.G}$PEPTIDE1,PEPTIDE1,2:R3-17:R3|PEPTIDE1,PEPTIDE1,4:R3-24:R3|PEPTIDE1,PEPTIDE1,10:R3-30:R3|PEPTIDE1,PEPTIDE1,1:R1-32:R2$$$V2.0)"
25,–,157,283,> 5000,"CC[C@H](C)[C@@H]1NC(=O)[C@@H]2CSSC[C@H](NC(=O)[C@H](CCC(N)=O)NC(=O)CNC(=O)CN)C(=O)N[C@@H](Cc3ccccc3)C(=O)N[C@@H](CCCNC(=N)N)C(=O)N[C@@H]([C@@H](C)CC)C(=O)N[C@@H](CC(C)C)C(=O)N[C@@H](CCCCN)C(=O)N[C@@H](CCCCN)C(=O)N[C@H]3CSSC[C@H](NC1=O)C(=O)N[C@@H](CCCNC(=N)N)C(=O)NCC(=O)N[C@@H](CC(N)=O)C(=O)NCC(=O)N[C@@H](Cc1ccc(O)cc1)C(=O)N[C@H](C(=O)NCC(=O)N[C@@H](CO)C(=O)O)CSSC[C@H](NC(=O)[C@H](CC(=O)O)NC(=O)[C@H](CO)NC(=O)[C@H](CC(=O)O)NC(=O)[C@H](CCCNC(=N)N)NC(=O)[C@H](CCCNC(=N)N)NC3=O)C(=O)N1CCC[C@H]1C(=O)NCC(=O)N[C@@H](C)C(=O)N2 (HELM PEPTIDE1{G.G.Q.C.F.R.I.L.K.K.C.R.R.D.S.D.C.P.G.A.C.I.C.R.G.N.G.Y.C.G.S}$PEPTIDE1,PEPTIDE1,4:R3-21:R3|PEPTIDE1,PEPTIDE1,11:R3-23:R3|PEPTIDE1,PEPTIDE1,17:R3-29:R3$$$V2.0)"
